# From patent US20160051514A1, “METHODS FOR TREATMENT OF CARDIOMYOPATHY” (THE BRIGHAM AND WOMEN'S HOSPITAL, INC., priority 2013, published 2016)
# Entries after “also recorded” stand apart in the source; their conditions may differ.
# Legend:
# [1] = system: zebrafish ventricular myocytes expressing 2057del2 plakoglobin; experiment: INa and IK1 current densities by whole-cell voltage-clamp in zebrafish ventricular myocytes; format: cell-based, zebrafish (Danio rerio); conditions: for Effect on reduced INa and IK1 current densities (summary statements): myocytes expressing 2057del2 plakoglobin, after exposure
# Text: (§1) Zebrafish ventricular myocyte isolation and culture: Zebrafish (Danio rerio) were bred and maintained at 28′C with 14 hr exposure to light and 10 hr to dark (day/night cycle) according to IACUC-approved protocols. Hearts were extracted from anesthetized fish at 21-56 days post-fertilization(dpf) using micro-dissecting tweezers (Roboz Surgical Instruments), washed vigorously in culture medium (M199, primocin, HEPES, L-glutamine, 10% fetal bovine serum) and placed in fresh medium. Ventricles were separated at the atrio-ventricular junction, pooled in a tube containing enzyme solution (HBSS without calcium/magnesium, Trypsin, PCN/Streptomycin, HEPES) at 37° C. and agitated in a thermomixer at 1000-1200 RPM. Dissociated cells were collected every 10 min from supernatants and transferred to tubes containing culture medium and 10% fetal bovine srum to halt trypsinization. Cells were then pelleted by centrifugation, resuspended in fresh culture medium, and seeded on sterile cover slips coated with laminin (20 μg/ml)^11 at 28° C. in a 5% CO2 incubator. After 36 hr, culture medium was changed and unattached cells were removed.
# INa and INa activation and inactivation were measured by whole-cell voltage-clamp according to standard protocols.^14,15 Cells were held at a membrane potential of −80 mV after which pulses between -120 and +50 mV were applied in 5 mV steps each with a duration of 250 ms. Inactivation was measured from membrane potentials between −120 mV and +50 mV at maximal activation.^14,15 In view of the small cell size (cell capacitance of 6.7±2.6pF; n=47) it was not necessary to reduce extracellular [Nal. Access resistance of the patch electrodes was <7 MΩ Measurements showing incomplete control of membrane potential were eliminated from analysis.^14,15
# The inward rectifier current IK1 was measured using the protocol described by Dobrev.^16,17 Ramp clamps of 1400 ms duration were applied between −120 and +20 mV. After each clamp, external solution containing Ba^2+(1 mM) was applied via a large pore pipette placed adjacent to the clamped cell. IK1 was defined as the total current minus the Ba^2+-insensitive current. ^16 Subtraction of the two currents was performed using a MatLab™ script.
# as §1, with “culture:” for “culture: Zebrafish (Danio rerio) were bred and maintained at 28′C with 14 hr exposure to light and 10 hr to dark (day/night cycle) according to IACUC-approved protocols.”, “3-4 or 5-7 weeks post-fertilization” for “21-56 days post-fertilization(dpf)”, “(calcium/magnesium free-HBSS containing trypsin, penicillin/streptomycin,” for “(HBSS without calcium/magnesium, Trypsin, PCN/Streptomycin,”, “serum” for “srum”, “μg/ml)” for “μg/ml)^11”, “28.5°” for “28°”
# INa activation and inactivation were measured by whole-cell voltage-clamp according to standard protocols (32,33). Cells were held at a membrane potential of −80 mV after which pulses between −120 and +50 mV were applied in 5 mV steps each with a duration of 250 ms. Inactivation was measured from membrane potentials between −120 mV and +50 mV at maximal activation (26,33). In view of the small size of zebrafish myocytes (cell capacitance of 6.7±2.6pF; n=47) it was not necessary to reduce extracellular [Na+] to achieve voltage control; extracellular [Na+] was reduced to 50 mM in studies of neonatal rat ventricular myocytes Access resistance of the patch electrodes was <7 MΩ. Measurements showing incomplete control of membrane potential were eliminated from analysis. […]
# [2] = system: neonatal rat ventricular myocytes expressing 2057del2 plakoglobin; experiment: Cytokine expression in conditioned culture media; format: cell-based; conditions: transfected cells
# Experimental: Cytokine expression: Conditioned culture media (after 24 or 48 hr) from control cells and cells expressing 2057del2-plakoglobin in the presence or absence of SB216763 (5 μM, 24 hr) were collected, mixed with a cocktail of biotinylated detection antibodies and incubated with nitro-cellulose membranes spotted in duplicate with control and capture antibodies (R&D Systems). Chemiluminescent signal produced at each spot corresponded to the amount of cytokine bound. Conditioned media from control, un-transfected cultures were assayed for cytokine expression for control purposes.
# Cytokine expression: Conditioned culture media (after 24 or 48 hr) from cells expressing 2057del2 plakoglobin in the presence or absence of SB216763 (5 μM, 24 hr) were collected, mixed with a cocktail of biotinylated detection antibodies and incubated with nitro-cellulose membranes spotted in duplicate with control and capture antibodies (R&D Systems). Chemiluminescent signal produced at each spot corresponded to the amount of cytokine bound. Conditioned media from non-transfected cultures were assayed for cytokine expression as controls.
# [3] = system: zebrafish ventricular myocytes expressing 2057del2 plakoglobin; experiment: Action potentials by current clamp in isolated zebrafish ventricular myocytes; format: cell-based, zebrafish (Danio rerio)
# Text: as §1
# After opening the gigaseal, the microelectrode amplifier (HEKA, EP-10, Lambrecht, Germany) was set to zero holding current and cells were stimulated at a frequency of 0.5 to 1 Hz. Recordings were corrected for a junction potential of 12 mV.^12,13
# as §1, with “culture:” for “culture: Zebrafish (Danio rerio) were bred and maintained at 28′C with 14 hr exposure to light and 10 hr to dark (day/night cycle) according to IACUC-approved protocols.”, “3-4 or 5-7 weeks post-fertilization” for “21-56 days post-fertilization(dpf)”, “(calcium/magnesium free-HBSS containing trypsin, penicillin/streptomycin,” for “(HBSS without calcium/magnesium, Trypsin, PCN/Streptomycin,”, “serum” for “srum”, “μg/ml)” for “μg/ml)^11”, “28.5°” for “28°”
# Cellular electrophysiology methods: Current clamp experiments in isolated neonatal rat and zebrafish ventricular myocytes were carried out using standard protocols (31). […] After opening the gigaseal, the microelectrode amplifier (HEKA, EP-10, Lambrecht, Germany) was set to zero holding current and cells were stimulated at a frequency of 0.5 to 1 Hz. Recordings were corrected for a junction potential of 12 mV (32,33). The chemical composition of the external and pipette solutions is described in supplemental material.
# [4] = 3-4 weeks post-fertilization, 2057del2 plakoglobin + SB2
# [5] = 3-4 weeks post-fertilization, Control + SB2
# [6] = isolated myocytes from transgenic fish treated in culture for 36 hr
# [7] = 5-7 weeks post-fertilization, 2057del2 plakoglobin + SB2, embryos treated at 1 dpf for 6 days (3.0 μM)
# [8] = 5-7 weeks post-fertilization, Control + SB2, embryos treated at 1 dpf for 6 days (3.0 μM)
# [9] = embryos treated at 1 dpf for 6 days, myocytes studied at 5-7 weeks
structure (smiles),measurement,setting,value
Cn1cc(C2=C(c3ccc(Cl)cc3Cl)C(=O)NC2=O)c2ccccc21 [SB216763],IK1: current density at −100 mV,[1]; [4],−15 pA/pF
same,IK1: slope between −90 and −15 mV,[1]; [4],−21 pA/pF*100 mV
same,INa: peak current density,[1]; [4],−163 pA/pF
same,IK1: current density at −100 mV,[1]; [5],−18 pA/pF
same,IK1: slope between −90 and −15 mV,[1]; [5],−27 pA/pF*100 mV
same,INa: peak current density,[1]; [5],−230 pA/pF
same,INa: peak current density,"[1]; 7-8 weeks post-fertilization, 2057del2 plakoglobin + SB2",−172 pA/pF
same,INa: peak current density,"[1]; 7-8 weeks post-fertilization, Control + SB2",−168 pA/pF
same,Effect on INa and IK1 current densities in cells expressing 2057del2 plakoglobin,[1]; early exposure of embryos,marked normalization of these currents; also recorded: almost completely normalized these currents
same,Effect on INa or IK1 current densities in control myocytes,[1]; early exposure of embryos,had no effect
same,"Effect on reduced INa and IK1 current densities, short-term exposure of isolated cells",[1]; [6],reversed reductions in INa and IK1 current densities
same,Effect on reduced INa and IK1 current densities (summary statements),[1],rapidly normalized
same,Effect on reduced INa and IK1 current densities (summary statements),[1]; listed as SB2168763,"rapid, near total recovery"
same,"Cytokine levels in culture medium, 48 hr exposure","[2]; 5 μM, 48 hr",clear reduction in cytokine levels; also recorded: restored the cytokine profile to control levels
same,"Cytokine profile in culture medium, 24 hr exposure",[2]; 24 hr,no apparent effect on cytokines; also recorded: had no apparent effect on the cytokine profile
same,Action potential duration,[3]; [4],175 ms
same,Maximal upstroke velocity,[3]; [4],22 V/s
same,Resting membrane potential,[3]; [4],−75 mV
same,Action potential duration,[3]; [5],173 ms
same,Maximal upstroke velocity,[3]; [5],35 V/s
same,Resting membrane potential,[3]; [5],−79 mV
same,Action potential duration,[3]; [7],154 ms
same,Maximal upstroke velocity,[3]; [7],66 V/s
same,Resting membrane potential,[3]; [7],−78 mV
same,Action potential duration,[3]; [8],195 ms
same,Maximal upstroke velocity,[3]; [8],53 V/s
same,Resting membrane potential,[3]; [8],−77 mV
same,Effect on APD80% in fish expressing mutant plakoglobin,[3]; [9],shortened APD8O% beyond control levels; also recorded: shortened APD80% beyond control levels
same,Effect on RMP and dV/dtmax in fish expressing mutant plakoglobin,[3]; [9],normalized RMP and dV/dtmax
same,Effect on action potentials in myocytes from control fish,[3]; [9],had no effect on action potentials; also recorded: did not affect action potentials
same,"Effect on action potential remodeling, short-term exposure of isolated cells",[3]; [6],normalized action potential remodeling
